Measurements from US20060154880A1, “Methods and compositions using immunomodulatory compounds for treatment and management of parasitic diseases” (priority 2004, published 2006).

Key:
IFN-γ production = experiment: Augmentation of IFN-γ production following TCR activation of T-cells; assay type: cell-based
IL-1β production = experiment: LPS-stimulated production of IL-1β by PBMC; assay type: cell-based
IL-2 production = experiment: Augmentation of IL-2 production following TCR activation of PBMC; assay type: cell-based
TNF-α production = experiment: Inhibition of TNF-α production following LPS-stimulation of human PBMC; assay type: cell-based
IL-6 production = experiment: LPS-stimulated production of IL-6 by PBMC; assay type: cell-based
T-cells = experiment: Stimulation of T-cell proliferation following primary induction by TCR activation; assay type: cell-based
IL-10 production = experiment: LPS-stimulated production of IL-10 by PBMC; assay type: cell-based
[1] = cited from earlier work; for hygroscopicity: polymorphic form, solid state; for stability / interconversion of polymorphic form: solvent system as stated

## Nc1cccc2c1CN(C1CCC(=O)NC1=O)C2=O (stereo not shown)
IFN-γ production
  potency relative to thalidomide in augmenting the production of IFN-γ: 50-100 times
IL-1β production
  effect on LPS-stimulated production of IL-1β by PBMC: dose-dependent inhibition
IL-2 production
  potency relative to thalidomide in augmenting the production of IL-2: 50-100 times
TNF-α production
  effect on LPS-stimulated production of TNF-α by PBMC: dose-dependent inhibition
IL-6 production
  effect on LPS-stimulated production of IL-6 by PBMC: dose-dependent inhibition
T-cells
  potency relative to thalidomide in stimulating the proliferation of T-cells: 50-100 times
IL-10 production
  effect on production of the anti-inflammatory cytokine IL-10: increased production

## Nc1cccc2c1CN(C1CCC(=O)NC1=O)C2=O (stereo not shown) [Form A, 3-(4-amino-1-oxo-1,3 dihydro-isoindol-2-yl)-piperidene-2,6-dione]
[1]
  hygroscopicity: weakly or not hygroscopic
  stability / interconversion of polymorphic form: most thermodynamically stable anhydrous polymorph

## Nc1cccc2c1CN(C1CCC(=O)NC1=O)C2=O (stereo not shown) [Form B, 3-(4-amino-1-oxo-1,3 dihydro-isoindol-2-yl)-piperidene-2,6-dione]
[1]
  stability / interconversion of polymorphic form: converts to Form E in aqueous solvent systems

## Nc1cccc2c1CN(C1CCC(=O)NC1=O)C2=O (stereo not shown) [Form C, 3-(4-amino-1-oxo-1,3 dihydro-isoindol-2-yl)-piperidene-2,6-dione]
[1]
  hygroscopicity: not hygroscopic below about 85% RH

## Nc1cccc2c1CN(C1CCC(=O)NC1=O)C2=O (stereo not shown) [Form D, 3-(4-amino-1-oxo-1,3 dihydro-isoindol-2-yl)-piperidene-2,6-dione]
[1]
  hygroscopicity: either weakly or not hygroscopic

## Nc1cccc2c1CN(C1CCC(=O)NC1=O)C2=O (stereo not shown) [Form E, 3-(4-amino-1-oxo-1,3 dihydro-isoindol-2-yl)-piperidene-2,6-dione]
[1]
  stability / interconversion of polymorphic form: most stable form
